# Laboratory results from ChEMBL document CHEMBL1201862, “PubChem BioAssay data set” (2004).
#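 Five concentrations, 48 hours, 96-well plates. The concentration for 50% growth inhibition is given as GI50.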 Active and inactive are the calls of the source. Cut-off read from the data, not from the text of the source: active = GI50 up to about 1.1 µM and inactive = higher.
# Columns and labels:
# Test in all cases: NCI-60 cell line screen, 48 h
# 786-0 = system: 786-0
# SNB-19 = system: SNB-19
# MOLT-4 = system: MOLT-4
# U-251 = system: U-251
# A549 = system: A549
# OVCAR-5 = system: OVCAR-5
# SNB-75 = system: SNB-75
# HL-60 = system: HL-60
# LOX IMVI = system: LOX IMVI
# KM12 = system: KM12
# NCI-H226 = system: NCI-H226
# SK-MEL-5 = system: SK-MEL-5
# RXF 393 = system: RXF 393
# K562 = system: K562
# TK-10 = system: TK-10
# UACC-62 = system: UACC-62
# SK-MEL-28 = system: SK-MEL-28
# OVCAR-8 = system: OVCAR-8
# SK-MEL-2 = system: SK-MEL-2
SMILES,GI50 (786-0),GI50 (SNB-19),GI50 (MOLT-4),GI50 (U-251),GI50 (A549),GI50 (OVCAR-5),GI50 (SNB-75),GI50 (HL-60),GI50 (LOX IMVI),GI50 (KM12),GI50 (NCI-H226),GI50 (SK-MEL-5),GI50 (RXF 393),GI50 (K562),GI50 (TK-10),GI50 (UACC-62),GI50 (SK-MEL-28),GI50 (OVCAR-8),GI50 (SK-MEL-2)
Cc1cccc(C)c1NC(=O)CCc1nnc2s/c(=C\c3ccc(Cl)cc3)c(=O)n12,44 µM (inactive),> 100 µM (inactive),> 100 µM (inactive),83.9 µM (inactive),> 100 µM (inactive),> 100 µM (inactive),73.8 µM (inactive),> 100 µM (inactive),> 100 µM (inactive),> 100 µM (inactive),97.5 µM (inactive),> 100 µM (inactive),36.8 µM (inactive),> 100 µM (inactive),42.3 µM (inactive),> 100 µM (inactive),> 100 µM (inactive),> 100 µM (inactive),60.5 µM (inactive)
CCC1C(C(=O)Nc2ccccc2C)=C(C)NC(C)=C1c1ccccc1C (centres undefined),> 100 µM (inactive),> 100 µM (inactive),> 100 µM (inactive),> 100 µM (inactive),> 78 µM (inactive),> 100 µM (inactive),> 100 µM (inactive),11.6 µM (inactive),> 57.8 µM (inactive),> 100 µM (inactive),> 100 µM (inactive),> 100 µM (inactive),> 100 µM (inactive),80 µM (inactive),> 100 µM (inactive),> 100 µM (inactive),> 100 µM (inactive),> 100 µM (inactive),> 100 µM (inactive)
O=CN1CCN(C=S)CC1,> 100 µM (inactive),> 100 µM (inactive),> 100 µM (inactive),> 100 µM (inactive),> 100 µM (inactive),> 100 µM (inactive),> 100 µM (inactive),> 100 µM (inactive),> 100 µM (inactive),> 100 µM (inactive),> 100 µM (inactive),> 100 µM (inactive),> 100 µM (inactive),> 100 µM (inactive),> 100 µM (inactive),> 100 µM (inactive),> 100 µM (inactive),> 100 µM (inactive),
Cc1ccc2c(c1)SC(c1cc3c(cc1Br)OCO3)S2 (centres undefined),> 31.6 µM (inactive),> 100 µM (inactive),31.4 µM (inactive),> 31.6 µM (inactive),> 31.6 µM (inactive),> 31.6 µM (inactive),0.516 µM (active),22.6 µM (inactive),> 31.6 µM (inactive),26.7 µM (inactive),> 31.6 µM (inactive),> 31.6 µM (inactive),12.3 µM (inactive),26.9 µM (inactive),> 31.6 µM (inactive),> 31.6 µM (inactive),> 31.6 µM (inactive),> 31.6 µM (inactive),> 31.6 µM (inactive)
COC(=O)C1C(C(=O)OC)C2(OC)c3ccccc3-c3ccccc3C12 (centres undefined),75.2 µM (inactive),60 µM (inactive),12.1 µM (inactive),42.9 µM (inactive),36.4 µM (inactive),> 100 µM (inactive),38.4 µM (inactive),1.97 µM (inactive),25.6 µM (inactive),35.6 µM (inactive),49.5 µM (inactive),18.7 µM (inactive),40.9 µM (inactive),19.8 µM (inactive),31.8 µM (inactive),26.1 µM (inactive),90.2 µM (inactive),49.7 µM (inactive),8.51 µM (inactive)
